The subject of assay [1] is SNL Rat Model of Allodynic Neuropathic Pain. The following applies: background statement on the model, cited from earlier work.
A further assay deals with IL-2. The experiment in a line: IL-2 levels in tissues from SNL rats (Luminex cytokine analysis). In kind it is in vivo, rat. The following applies: for IL-2 level, Ipsilateral DRGL4 / IL-2 level, Ipsilateral DRGL5, L6 / IL-2 level, Ipsilateral spinal cord / IL-2 level, Serum: 2.4 mg/kg/day via osmotic minipump, mean ± SEM. The procedure:
(§1) The SNL (or Chung) Model in the rat is an accepted standard animal model of neuropathic pain and is thought to mimic the human causalgia condition with respect to symptoms (guarding behavior, mechanical allodynia) and alleviation by pharmacological agents. […] The SNL Model is performed by tightly ligating the L-5 and L-6 spinal nerves, which produces tactile allodynia or sensitivity to light touch as described (Kim and Chung, 1992). Male sprague-dawley rats (100-120 grams; Charles River, Wilmington, Mass.) were anesthetized through inhalation of an isoflurane/oxygen mix. The surgical site was shaved and prepared with betadine. An incision was made from the thoracic vertebra XIII toward down the sacrum. The muscle was separated from the spinal vertebra (left side) at the L4-S2 levels. The L6 vertebra was located and then the transverse process was carefully removed with a small rongeur to visually identify the L4-L6 spinal nerves. The L5 and L6 spinal nerves was isolated and tightly ligated with 6-0 silk thread. A complete homeostasis was confirmed and then the wound was sutured. The duration of the surgery was approximately 20 minutes. A small amount of antibiotic ointment was applied to the incised area and the animals were transferred to a plastic recovery cage under a regulated heat-temperature lamp. Animals were not given any topical or local anesthetics post-operatively because they will inhibit the development of the pain syndrome, which is the phenomenon to be studied.
Compound A was formulated in 50% DMSO (Sigma, St. Louis, Mo.). This solution was loaded into the osmotic minipumps (Model 1007D, Alzet Corp., Palo Alto, Calif.) set to deliver the drug at a rate of 0.5 ul/hr resulting in a final dose of 2.4 mg/kg/day. The vehicle for these studies is 50% DMSO administered via osmotic minipumps at a rate of 0.5 ul/hr/kg.
The levels of cytokines were measured with a sensitive, fluorescent multiplex immunobead assay (Luminex; Biosource-Invitrogen, Carlsbad, Calif.). 9 plex rat cytokine/chemokine (RCYTO-80K-09) panel from Millipore was used. Cytokine levels in samples were analyzed by using the corresponding Millipore cytokine Beadmate pairs. For the Luminex assay, a 96-well filter plate (Millipore) was pre-wetted with 25 μl of Beadlyte cytokine assay buffer. A vacuum manifold (Millipore, Billerica, Mass.) was used to aspirate the buffer from the wells. 25 μl of sample was placed in each well. The beads (25 μl) were pipetted into the wells. Standard curves for each cytokine were generated in duplicate by placing 25 μl of the appropriate dilution of standards purchased from Millipore. The plate was incubated overnight with gentle shaking in the dark at 4° C. Beads were washed with Beadlyte cytokine assay buffer (Millipore) and wash buffer was eliminated using a vacuum manifold. 25 μl of the appropriate biotin-conjugated secondary antibody (Millipore) was added to each well for 90 minutes at room temperature with gentle shaking. Beads were incubated with Beadlyte streptavidin-phycoerythrin (1:25 dilution in Beadlyte assay buffer) for 30 minutes at room temperature with gentle shaking. Beads were washed, resuspended in 125 μl of Beadlyte buffer, and analyzed by Luminex 100 instrument (Luminex Corporation, Austin, Tex.). The mean fluorescence intensities obtained from 50 beads per cytokine minimum were analyzed using Upstate Beadview software. Standard curves were generated (8 data points including a zero standard run in duplicate) using a four- or five-parametric logistic curve. R-squared values were between 0.99 and 1. Data are expressed in pg/ml or ng/ml values.

In assay [2] the test system is SNL Rat Model of Allodynic Neuropathic Pain. The experiment in a line: Allodynia reversal (Von Frey) in the SNL Rat Model of Allodynic Neuropathic Pain. The format is in vivo. The following applies: SNL rats, 3 mg/kg BID SC alone. The procedure: as §1
The allodynia is quantitated in the animals having received the Chung surgery by stimulation with a series of 8 Von Frey hairs on the mid planter area of the surgical hind paw in the up-down manner as described in the literature (Dixon, 1980). Von Frey hairs are applied in an up-down manner depending on the response until the 50% threshold is established. The Von Frey hairs are applied to the plantar surface of the surgical paw with just enough force to bend them. A positive response is recorded if the paw is sharply withdrawn. Eight Von Frey hairs were used 3.61, 3.84, 4.08, 4.31, 4.56, 4.74, 4.93 and 5.18 yielding a gram force of 0.25-15 grams.
[formula] • Mean±SEM: • Mean=average of allodynia reversals • SEM=STDEV/SQ ROOT of n
Testing with compounds is done 2-3 weeks after surgery to establish stable allodynia. In all experimental animals, baseline measurements were taken prior to drug administration and then at 24 hours and 5-23 days post dosing with Alzet osmotic minipump. The investigator was blinded to the identity of the drug groups. The % allodynia reversal is calculated as: [(Postdrug threshold−Predrug threshold)/(15-Predrug threshold)]×100.
Compound B was formulated in 50% DMSO (dimethyl sulfoxide; Sigma, St. Louis, Mo.). This solution was dosed orally TID at a dose of 0.3 or 1 mg/kg. For dosing in the osmotic minipumps (Model 1007D, Alzet Corp., Palo Alto, Calif.) the compound was loaded onto the pumps set to deliver a final dose of either 1 or 3 mg/kg/day. The vehicle for these studies is 50% DMSO.
Compound C was formulated first in 100% DMSO (Sigma, St. Louis, Mo.), then diluted down in 30% DMSO for a 10 mg/ml solution; 15% DMSO for a 3 mg/ml solution and further dilutions were made in water. The compound was dosed orally TID at a dose of either 0.3 or 1 mg/kg for a total daily dose of 1 or 3 mg/kg/day, respectively.

Where [3] appears, read: Table 3 study, mean % MPE ± SEM.

Take `NCC1(CC(=O)O)CCCCC1` [Gabapentin]: in assay [1] (30 mg/kg p.o.), the alleviation of allodynia is recorded as 50%.
In the case of `OCCNC(=S)NCc1cccc(Cl)c1F` [Compound A], in the assay with IL-2 (24 hours), the “IL-2 level, Ipsilateral DRGL4” value stood at 101.63 ± 20.55 pg/mL; the “IL-2 level, Ipsilateral DRGL5, L6” value is 211 ± 33.72 pg/mL; the “IL-2 level, Ipsilateral spinal cord” value came out at 345 ± 19.34 pg/mL; the “IL-2 level, Serum” value amounted to 978 ± 77.13 pg/mL. Also, in the assay on IL-2 (5 days), the “IL-2 level, Ipsilateral DRGL4” value was 69.52 ± 9.42 pg/mL; the “IL-2 level, Ipsilateral DRGL5, L6” value amounted to 138.35 ± 22.59 pg/mL; the “IL-2 level, Ipsilateral spinal cord” value was 351.75 ± 17.19 pg/mL; the “IL-2 level, Serum” value came out at 380.25 ± 61.67 pg/mL. For the same compound, in the assay on IL-2 (result in words), the “spinal nerve ligation surgery-induced increase of IL-2 levels” value is reported as “attenuated”.
As to `C=CC[C@@H]1/C=C(\C)C[C@H](C)C[C@H](OC)[C@H]2O[C@@](O)(C(=O)C(=O)N3CCCC[C@H]3C(=O)O[C@H](/C(C)=C/[C@@H]3CC[C@@H](O)[C@H](OC)C3)[C@H](C)[C@@H](O)CC1=O)[C@H](C)C[C@@H]2OC` [FK506, reference compound], in assay [2] (Table 2 study), the “% Allodynia Reversal 24 hr post” value was −5.77 ± 3.43% and the “% Allodynia Reversal 7 day post” value is given as −6.39 ± 4.85%. Besides, in assay [2] (setting [3]), the “% Allodynia Reversal 24 hr post” value is listed as −0.53 ± 6.21% and the “% Allodynia Reversal 23 day post” value came out at 2.01 ± 5.86%.
For `CN1CC[C@]23c4c5ccc(O)c4O[C@H]2[C@@H](O)C=C[C@H]3[C@H]1C5` [morphine], the “alleviation of tactile allodynia” value in assay [1] is reported as “does not alleviate”.
